Assay results published in patent publication US7947676B2, “Pyrazolo[3,4-d]pyrimidine compounds as antitumor agents” (AstraZeneca AB, priority 2004, dated 2011).

What was measured:
erbB2 = target: T1, erbB2 (Homo sapiens, UniProt P04626); experiment: Clone 24 phospho-erbB2 cell assay, Test (d); assay type: cell-based; conditions: MCF7 derived cell line (Clone 24) overexpressing erbB2, 4 hours; read-out: IC50 (μM) Test (d): Inhibition of phosphorylation of erbB2
T1 construct: to give a cell line that overexpresses full length wild type erbB2 protein; expressed in transfected cells; host or cells: MCF7 (breast carcinoma) derived 'Clone 24' cells
Procedure: The cells were resuspended in Growth Medium.
Plates were returned to the incubator for 4 hours and then 20 μl of 20% formaldehyde solution in PBS was added to each well and the plate was left at room temperature for 30 minutes. This fixative solution was removed with a multichannel pipette, 100 μl of PBS was added to each well and then removed with a multichannel pipette and then 50 μl PBS was added to each well. Plates were then sealed and stored for up to 2 weeks at 4° C.
Immunostaining was performed at room temperature. […] Then this primary antibody solution was removed from the wells using a plate washer followed by two 200 μl PBS/Tween 20 washes using a plate washer. […] From now onwards, wherever possible, plates were protected from light exposure, at this stage by sealing with black backing tape.
The Fluorescence signal is each well was measured using an Acumen Explorer Instrument (Acumen Bioscience Ltd.), a plate reader that can be used to rapidly quantitate features of images generated by laser-scanning. […] Fluorescence dose response data obtained with each compound was exported into a suitable software package (such as Origin) to perform curve fitting analysis. Inhibition of erbB2 phosphorylation was expressed as an IC50 value.

erbB2 tyrosine kinase = target: T2, erbB2 tyrosine kinase (Homo sapiens, UniProt P04626); experiment: Protein tyrosine kinase phosphorylation assay, Test (a), erbB2; assay type: biochemical; conditions: recombinant intracellular fragment, ATP at Km concentration; read-out: IC50 (μM) Test (a): Inhibition of erbB2 tyrosine kinase protein phosphorylation
T2 construct: Recombinant intracellular fragments of EGFR, erbB2 and erbB4; made in house; host or cells: baculovirus/Sf21 insect cells (cleared lysate)
Procedure: (§1) This test measures the ability of a test compound to inhibit the phosphorylation of a tyrosine containing polypeptide substrate by EGFR, erbB2 and erbB4 tyrosine kinase enzyme.
(§2) Recombinant intracellular fragments of EGFR, erbB2 and erbB4 (accession numbers X00588, X03363 and L07868 respectively) were cloned and expressed in the baculovirus/Sf21 system. […]
(§3) Constitutive kinase activity of these recombinant proteins was determined by their ability to phosphorylate a synthetic peptide (made up of a random co-polymer of Glutamic Acid, Alanine and Tyrosine in the ratio of 6:3:1). […]
(§4) The immobilised phospho-peptide product of the reaction was detected by immunological methods. […] After further washing, HRP activity in each well of the plate was measured colorimetrically using 22′-Azino-di-[3-ethylbenzthiazoline sulfonate (6)] diammonium salt crystals (ABTS™ from Roche) as a substrate.
(§5) Kinase inhibition for a given compound was expressed as an IC50 value. […] The range of phosphorylation was calculated from the positive (vehicle plus ATP) and negative (vehicle minus ATP) control values.

EGFR tyrosine kinase = target: T3, EGFR tyrosine kinase (Homo sapiens, UniProt P00533); experiment: Protein tyrosine kinase phosphorylation assay, Test (a), EGFR; assay type: biochemical; conditions: recombinant intracellular fragment, ATP at Km concentration; read-out: IC50 (μM) Test (a): Inhibition of EGFR tyrosine kinase protein phosphorylation
T3 construct: Recombinant intracellular fragments of EGFR, erbB2 and erbB4; made in house; host or cells: baculovirus/Sf21 insect cells (cleared lysate)
Procedure: as §1, §2, §3, §4, §5

T3 sequence (P00533 669-1210 limits assumed): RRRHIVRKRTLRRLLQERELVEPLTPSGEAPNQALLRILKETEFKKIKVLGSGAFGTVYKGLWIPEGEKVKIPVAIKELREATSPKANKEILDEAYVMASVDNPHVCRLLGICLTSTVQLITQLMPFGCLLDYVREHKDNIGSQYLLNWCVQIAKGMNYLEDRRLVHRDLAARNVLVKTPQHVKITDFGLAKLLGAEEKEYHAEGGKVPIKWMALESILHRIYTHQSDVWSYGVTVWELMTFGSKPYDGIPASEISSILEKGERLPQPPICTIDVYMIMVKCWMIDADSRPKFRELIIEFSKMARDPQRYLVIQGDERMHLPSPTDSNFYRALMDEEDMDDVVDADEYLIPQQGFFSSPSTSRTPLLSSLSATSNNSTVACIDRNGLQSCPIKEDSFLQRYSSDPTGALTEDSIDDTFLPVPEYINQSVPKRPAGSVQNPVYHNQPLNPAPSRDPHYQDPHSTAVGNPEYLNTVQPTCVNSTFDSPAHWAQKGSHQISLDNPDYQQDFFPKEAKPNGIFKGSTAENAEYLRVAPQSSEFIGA
T2 sequence (P04626 676-1255 limits assumed): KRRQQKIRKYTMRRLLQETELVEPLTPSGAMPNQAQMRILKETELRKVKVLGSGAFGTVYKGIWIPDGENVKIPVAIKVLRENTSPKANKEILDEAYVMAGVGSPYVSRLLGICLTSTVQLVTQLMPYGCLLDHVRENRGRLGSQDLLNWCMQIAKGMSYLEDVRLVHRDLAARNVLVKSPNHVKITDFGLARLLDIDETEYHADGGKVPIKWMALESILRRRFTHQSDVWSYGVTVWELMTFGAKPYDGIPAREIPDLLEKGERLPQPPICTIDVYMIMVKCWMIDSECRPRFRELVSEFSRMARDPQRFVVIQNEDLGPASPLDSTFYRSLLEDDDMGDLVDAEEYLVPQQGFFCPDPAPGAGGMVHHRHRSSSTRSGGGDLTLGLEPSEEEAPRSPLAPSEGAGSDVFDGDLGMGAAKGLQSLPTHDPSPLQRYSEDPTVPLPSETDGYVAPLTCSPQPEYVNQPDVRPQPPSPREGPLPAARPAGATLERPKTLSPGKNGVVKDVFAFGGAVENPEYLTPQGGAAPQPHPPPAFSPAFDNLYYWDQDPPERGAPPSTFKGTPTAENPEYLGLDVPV
T1 sequence (P04626 23-1255): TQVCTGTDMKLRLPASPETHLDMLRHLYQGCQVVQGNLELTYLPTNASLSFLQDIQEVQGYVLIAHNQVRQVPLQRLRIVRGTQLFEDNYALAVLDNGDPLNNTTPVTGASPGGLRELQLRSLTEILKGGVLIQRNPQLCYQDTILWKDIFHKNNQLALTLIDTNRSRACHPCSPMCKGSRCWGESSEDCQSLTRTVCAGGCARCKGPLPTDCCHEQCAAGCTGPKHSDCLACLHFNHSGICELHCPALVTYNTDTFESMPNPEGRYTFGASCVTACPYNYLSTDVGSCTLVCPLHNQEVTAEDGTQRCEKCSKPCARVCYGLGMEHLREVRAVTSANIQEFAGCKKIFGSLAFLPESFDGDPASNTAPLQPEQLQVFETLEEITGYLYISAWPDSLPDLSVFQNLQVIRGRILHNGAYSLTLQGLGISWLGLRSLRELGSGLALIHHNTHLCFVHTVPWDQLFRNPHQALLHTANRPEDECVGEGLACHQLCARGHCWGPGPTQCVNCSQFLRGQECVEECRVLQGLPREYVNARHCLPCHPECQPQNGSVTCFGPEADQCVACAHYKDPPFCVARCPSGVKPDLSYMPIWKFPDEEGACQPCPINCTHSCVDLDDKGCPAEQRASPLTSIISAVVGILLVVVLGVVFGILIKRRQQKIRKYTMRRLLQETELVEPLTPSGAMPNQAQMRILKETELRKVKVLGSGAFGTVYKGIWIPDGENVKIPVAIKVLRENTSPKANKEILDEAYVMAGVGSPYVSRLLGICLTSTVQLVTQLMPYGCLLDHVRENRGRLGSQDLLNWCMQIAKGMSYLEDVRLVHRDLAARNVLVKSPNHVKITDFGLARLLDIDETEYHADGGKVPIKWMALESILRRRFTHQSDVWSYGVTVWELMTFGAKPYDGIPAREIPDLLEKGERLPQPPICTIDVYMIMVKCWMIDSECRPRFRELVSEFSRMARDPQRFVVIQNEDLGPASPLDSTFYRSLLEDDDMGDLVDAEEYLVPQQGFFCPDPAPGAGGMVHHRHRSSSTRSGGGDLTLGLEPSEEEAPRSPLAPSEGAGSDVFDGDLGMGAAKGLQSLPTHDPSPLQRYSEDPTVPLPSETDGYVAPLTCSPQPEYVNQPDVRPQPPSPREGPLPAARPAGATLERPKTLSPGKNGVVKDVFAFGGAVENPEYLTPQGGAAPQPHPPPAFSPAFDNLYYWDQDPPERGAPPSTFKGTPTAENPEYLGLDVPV

IC50 (erbB2): 0.083 µM
IC50 (erbB2 tyrosine kinase): 0.027 µM
IC50 (EGFR tyrosine kinase): 0.71 µM
SMILES: Cc1ccc(Oc2ccc(Nc3ncnc4[nH]nc(OCCN5CCOCC5)c34)cc2C)cn1 [Example 42, N-{3-methyl-4-[(6-methylpyridin-3-yl)oxy]phenyl}-3-(2-morpholin-4-ylethoxy)-1H-pyrazolo[3,4-d]pyrimidin-4-amine]
